Assays:
Type in all cases: cell-based
mTOR-raptor complex = target: T1, mTOR-raptor complex (Rattus norvegicus, UniProt P42346+Q8N122); assay: Coimmunoprecipitation of raptor with mTOR from 293T cells incubated with compound; conditions: overexpressed in 293T cells, increasing concentrations, 1 h
T1 construct: rows headed: amount of HA-raptor that coimmunoprecipitated with AU1-mTOR; other: extracts incubated with increasing concentrations; amount of HA-raptor that coimmunoprecipitated with AU1-mTOR; other: overexpressed in 293T cells, increasing concentrati; half maximal effect on raptor dissociation from mTOR; other: AU1-mTOR and HA-raptor overexpressed in 293T cells, 1 h; association of AU1-mTOR and HA-rapto
Protocol: (§1) FIG. 11A & 11B represent data showing FTS inhibits PHAS-I phosphorylation and promotes dissociation of the mTOR-raptor complex in 293T cells. 293T cells were transfected with pcDNA3AU1-mTOR, pcDNA33HARaptor, pcDNA33HA-mLST8, and pCMV-Tag3APHAS-I (FIG. 11A). After 18 h the cells were incubated for 1 h with increasing concentrations of FTS before extracts were prepared. A sample of each extract was subjected to SDS-PAGE and immunoblotted to detect PHAS-I or PThr^36/45. AU1-mTOR was also immunoprecipitated from each extract, and immune complexes were subjected to SDSPAGE and immunoblotted with mTAb2, to detect mTOR, and with anti-HA antibodies, to detect HA-mLST8 and HA-raptor. Nontransfected 293T cells were incubated with increasing concentrations of FTS for 1 h before extracts were prepared. mTOR was immunoprecipitated with mTAb1, and samples were subjected to SDS-PAGE.
(§2) FIGS. 12A & 12B represent data showing the effects of incubating cells with increasing concentrations of FTS and GTS on mTOR activity and mTOR association with raptor and mLST8. AU1-mTOR, HA-raptor, and HAmLST8 were overexpressed in 293T cells. The cells were then incubated for 1 h with increasing concentrations of FTS (●, ▴, ▪) or GTS (∘, Δ, □) before extracts were prepared. Immunoprecipitations were then conducted with anti-AU1 antibodies. mTOR kinase activity (●, ∘) was determined by measuring ^32P incorporation into [His^6]PHAS-I in immune complex kinases assays performed with [γ-^32P]ATP. The relative amounts of HA-raptor (▴, Δ) and HA-mLST8 (▪, □) that coimmunoprecipitated with AU1-mTOR were determined after immunoblotting with anti-HA antibodies. The results (mean values±S.E. from 3 experiments) are expressed as percentages of the mTOR activity (FIG. 12A) or coimmunoprecipitating proteins (FIG. 12B) from samples incubated without FTS or GTS, and have been corrected for the amounts of AU1-mTOR immunoprecipitated.
To investigate further the inhibitory effects of FTS on mTOR signaling, the effect of the drug on the association of mTOR, raptor, and mLST8 was determined. AU1-mTOR and HA-tagged forms of raptor and mLST8 were overexpressed in 293T cells, which were then incubated with increasing concentrations of FTS before AU1-mTOR was immunoprecipitated with anti-AU1 antibodies. Immunoblots were prepared with anti-HA antibodies to assess the relative amounts of HA-raptor and HA-mLST8 that coimmunoprecipitated with AU 1-mTOR (FIG. 11A).
Results obtained with overexpressed proteins are not necessarily representative of responses of endogenous proteins. Therefore, experiments were conducted to investigate the effect FTS on the endogenous TORC1 in nontransfected cells. […]

mTOR = target: T2, mTOR (Rattus norvegicus, UniProt P42346); assay: Immune complex assay of mTOR activity after incubating 293T cells with compound; conditions: for mTOR activity: 293T cells incubated with increasing concentrations
T2 construct: expressed in transfected cells; host or cells: 293T
Protocol: as §2
FIG. 12A presents results of immune complex kinases assays with AU1-mTOR from extracts of 293T cells that had been incubated with increasing concentrations of FTS.
Immune complex assay of mTOR activity—AU1-mTOR was immunoprecipitated by using anti-AU1 antibody bound to protein G-agarose beads as described previously (McMahon, et al., (2002) Mol. Cell. Biol. 22, 7428-7438). Endogenous mTOR was immunoprecipitated in the same manner, except that mTAb1 was used instead of anti-AU1 antibody. To measure kinase activity, exhaustively washed immune complexes were suspended in 20 μl of Buffer A (50 mM NaCl, 0.1 mM EGTA, 1 mM dithiothreitol (DTT), […], 10 mM Na-HEPES, and 50 mM β-glycerophosphate, pH 7.4.). The kinase reactions were initiated by adding 20 μl of Buffer A supplemented with 2 mM [γ-^32P]ATP, 20 mM MnCl2 and 40 μg/ml of [His^6]PHAS-I. In experiments in which the effects of wortmannin were investigated, DTT was omitted from the reactions, and [His^6]PHAS-I that had been reduced and alkylated with N-ethylmaleimide was used as substrate. Reactions were terminated after 10 min at 30° by adding SDS sample buffer. Samples were subjected to SDS-PAGE and the relative amounts of ^32P incorporated into [His^6]PHAS-I were determined.

mTOR-mLST8 = assay: Coimmunoprecipitation of mLST8 with mTOR from 293T cells incubated with compound; conditions: overexpressed in 293T cells, 1 h
Protocol: as §1, §2
To investigate further the inhibitory effects of FTS on mTOR signaling, the effect of the drug on the association of mTOR, raptor, and mLST8 was determined. […]

Row | Compound | amount of HA-raptor that coimmunoprecipitated with AU1-mTOR (mTOR-raptor complex) | IC50 (mTOR; 293T cells incubated 1 h, read-out: half maximal effect on inhibition of AU1-mTOR activity) [µM] | mTOR activity (mTOR) | amount of HA-mLST8 associated with AU1-mTOR (mTOR-mLST8)
1 | CC(C)=CCC/C(C)=C/CC/C(C)=C/CSc1ccccc1C(=O)O [FTS, farnesylthiosalicylic acid] | progressive decrease | 20 to 30 | stable decrease in mTOR activity | did not appear to change
2 | CC(C)=CCC/C(C)=C/CSc1ccccc1C(=O)O [GTS, S-geranylthiosalicylic acid, reference compound] | relatively little effect |  | slightly decreased | relatively little effect
